Experimental data published in paper PMC6370209, “Rapid and sensitive detection of NADPH via mBFP-mediated enhancement of its fluorescence” (PLoS ONE, 2019).

Assays:
[1] = molecular target: T1, NAD(H) kinase (MfnK) (Micrococcus luteus, UniProt Q8VUL9); assay: NADPH formation detected by mBFP fluorescence; type: biochemical; settings: 50 mM Tris-HCl pH 7.5, 0.1 mM MgCl2, 0.5 mM ATP, 0.5 mM NADH
T1 construct: full-length gene from genomic DNA, C-terminal His tag (pET-22b(+)), expressed in E. coli BL21(DE3), purified
T1 sequence (Q8VUL9 1-362): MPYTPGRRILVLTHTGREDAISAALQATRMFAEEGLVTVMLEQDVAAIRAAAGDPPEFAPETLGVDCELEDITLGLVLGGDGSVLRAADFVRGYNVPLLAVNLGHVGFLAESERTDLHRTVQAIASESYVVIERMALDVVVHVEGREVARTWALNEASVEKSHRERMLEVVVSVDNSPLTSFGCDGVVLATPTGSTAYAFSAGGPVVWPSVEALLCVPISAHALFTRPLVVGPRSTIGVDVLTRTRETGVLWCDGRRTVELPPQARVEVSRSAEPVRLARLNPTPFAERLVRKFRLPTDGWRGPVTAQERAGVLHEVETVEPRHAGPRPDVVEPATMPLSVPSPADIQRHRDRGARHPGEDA

[2] = molecular target: T2, mBFP (metagenome-derived blue fluorescent protein) (uncultured bacterium, UniProt D6NKF4); assay: competition with NADPH, attenuation of mBFP-NADPH fluorescence; type: binding; settings: […] Tris-HCl pH […] °C; competitive with NADPH; excess NADP+
T2 construct: full length, 248 amino acids, N-terminal 6-His tag kept (pQE30), expressed in E. coli XL1-Blue
T2 sequence (D6NKF4 1-248): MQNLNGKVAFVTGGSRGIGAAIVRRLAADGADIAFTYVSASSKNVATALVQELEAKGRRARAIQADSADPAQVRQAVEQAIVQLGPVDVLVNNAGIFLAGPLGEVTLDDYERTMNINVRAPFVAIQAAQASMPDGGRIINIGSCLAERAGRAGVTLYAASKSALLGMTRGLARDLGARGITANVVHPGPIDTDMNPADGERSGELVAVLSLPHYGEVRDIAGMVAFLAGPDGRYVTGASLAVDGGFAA

[3] = molecular target: T2, mBFP (metagenome-derived blue fluorescent protein); assay: fluorescence enhancement of NADPH upon mBFP addition (ex […] nm, em […] nm); type: binding; settings: […] Tris-HCl pH […] °C

NC(=O)C1=CN([C@@H]2O[C@H](COP(=O)(O)OP(=O)(O)OC[C@H]3O[C@@H](n4cnc5c(N)ncnc54)[C@H](O)[C@@H]3O)[C@@H](O)[C@H]2O)C=CC1 [NADH]
NADPH formation detected by mBFP fluorescence [1]: enzymatic conversion of NADH to NADPH by MfnK as a function of the NADH amount

NC(=O)c1ccc[n+]([C@@H]2O[C@H](COP(=O)(O)OP(=O)(O)OC[C@H]3O[C@@H](n4cnc5c(N)ncnc54)[C@H](OP(=O)(O)O)[C@@H]3O)[C@@H](O)[C@H]2O)c1 [NADP^+]
competition with NADPH, attenuation of mBFP-NADPH fluorescence [2]: excess NADP^+ resulted in competition for mBFP binding and attenuated the NADPH fluorescence enhancement

NC(=O)C1=CN([C@@H]2O[C@H](COP(=O)(O)OP(=O)(O)OC[C@H]3O[C@@H](n4cnc5c(N)ncnc54)[C@H](OP(=O)(O)O)[C@@H]3O)[C@@H](O)[C@H]2O)C=CC1 [NADPH]
fluorescence enhancement of NADPH upon mBFP addition (ex 350 nm, em 450 nm) [3]: An immediate enhancement of fluorescence was detected when the purified mBFP was added
